Source: patent publication US10759791B2, “Mammalian and bacterial nitric oxide synthase inhibitors” (Northwestern University, priority 2014, dated 2020)

How the values were obtained:
rat nNOS [1] = biological target: T1, rat nNOS (Rattus norvegicus (Rat), UniProt P29476); assay: Oxyhemoglobin NO assay, Ki (Table 9); assay type: biochemical; conditions: for e/n: ratio Ki eNOS to Ki rat nNOS; for i/n: ratio Ki iNOS to Ki rat nNOS
human nNOS [2] = biological target: T2, human nNOS (Homo sapiens (Human), UniProt P29475); assay: Oxyhemoglobin NO assay, Ki (Table 9); assay type: biochemical
CYP1A2 = CYP1A2 (Homo sapiens (Human), UniProt P05177); assay: CYP inhibition assay, human liver microsomes; conditions: 10 μM
Chain of CYP1A2 (P05177 whole entry): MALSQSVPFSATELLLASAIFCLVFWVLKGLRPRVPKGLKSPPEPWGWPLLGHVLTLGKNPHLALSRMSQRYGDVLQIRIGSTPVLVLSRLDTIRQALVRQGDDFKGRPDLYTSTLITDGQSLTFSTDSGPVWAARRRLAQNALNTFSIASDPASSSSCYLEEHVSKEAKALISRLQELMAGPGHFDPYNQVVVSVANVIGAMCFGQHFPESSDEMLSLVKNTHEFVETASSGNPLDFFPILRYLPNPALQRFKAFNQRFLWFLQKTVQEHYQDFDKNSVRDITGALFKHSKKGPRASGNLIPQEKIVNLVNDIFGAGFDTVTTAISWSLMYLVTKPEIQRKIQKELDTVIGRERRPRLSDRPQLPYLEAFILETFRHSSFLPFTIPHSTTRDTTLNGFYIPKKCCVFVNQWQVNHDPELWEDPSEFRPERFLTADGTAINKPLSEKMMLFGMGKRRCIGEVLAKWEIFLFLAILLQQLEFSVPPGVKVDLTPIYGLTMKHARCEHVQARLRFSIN

B. subtilis = assay: Effect of oxidative stress (ACR, H2O2) and NOS inhibitors on B. subtilis survival and growth; assay type: cell-based, Bacillus subtilis
bBiDomain = bBiDomain (Bacillus subtilis (strain 168), UniProt O34453); assay: bNOS activity inhibition with bBiDomain and YumC, nitrite by Griess reaction; conditions: for % nitrite: inhibitor 30 μM, NOHA 200 μM, 4 min, single time point
Chain of bBiDomain (O34453 other isoform, or with tags, fused parts or gaps): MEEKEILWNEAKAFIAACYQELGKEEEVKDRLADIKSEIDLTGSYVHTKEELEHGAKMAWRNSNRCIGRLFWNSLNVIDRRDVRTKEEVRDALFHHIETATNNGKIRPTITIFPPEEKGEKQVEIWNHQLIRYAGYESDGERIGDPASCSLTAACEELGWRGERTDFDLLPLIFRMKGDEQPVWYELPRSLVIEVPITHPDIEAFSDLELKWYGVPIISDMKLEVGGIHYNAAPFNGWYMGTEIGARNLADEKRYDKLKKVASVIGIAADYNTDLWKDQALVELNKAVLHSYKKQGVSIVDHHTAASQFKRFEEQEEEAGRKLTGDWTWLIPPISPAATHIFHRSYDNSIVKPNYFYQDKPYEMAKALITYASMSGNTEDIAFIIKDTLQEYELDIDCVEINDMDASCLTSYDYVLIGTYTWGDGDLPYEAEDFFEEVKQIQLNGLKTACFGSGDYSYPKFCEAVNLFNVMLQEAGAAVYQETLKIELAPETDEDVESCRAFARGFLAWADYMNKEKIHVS

[3] = Plasma pharmacokinetics and brain distribution in mice; conditions: for T1/2: i.v. 2 mg/kg
rat nNOS [4] = biological target: T1, rat nNOS; assay: Hemoglobin capture assay, Ki (Tables 11-12); conditions: ratio of Ki values
rat nNOS [5] = biological target: T1, rat nNOS; assay: Hemoglobin capture assay, Ki (Example 159); assay type: biochemical; conditions: for Selectivity n/i: rat nNOS vs murine iNOS
[6] = human, plasma, 4 h, 5 μM
in vitro = conditions: human, human plasma, pH 7.4
CYP2C8 = CYP2C8 (Homo sapiens (Human), UniProt P10632); conditions: 10 μM
Chain of CYP2C8 (P10632 whole entry): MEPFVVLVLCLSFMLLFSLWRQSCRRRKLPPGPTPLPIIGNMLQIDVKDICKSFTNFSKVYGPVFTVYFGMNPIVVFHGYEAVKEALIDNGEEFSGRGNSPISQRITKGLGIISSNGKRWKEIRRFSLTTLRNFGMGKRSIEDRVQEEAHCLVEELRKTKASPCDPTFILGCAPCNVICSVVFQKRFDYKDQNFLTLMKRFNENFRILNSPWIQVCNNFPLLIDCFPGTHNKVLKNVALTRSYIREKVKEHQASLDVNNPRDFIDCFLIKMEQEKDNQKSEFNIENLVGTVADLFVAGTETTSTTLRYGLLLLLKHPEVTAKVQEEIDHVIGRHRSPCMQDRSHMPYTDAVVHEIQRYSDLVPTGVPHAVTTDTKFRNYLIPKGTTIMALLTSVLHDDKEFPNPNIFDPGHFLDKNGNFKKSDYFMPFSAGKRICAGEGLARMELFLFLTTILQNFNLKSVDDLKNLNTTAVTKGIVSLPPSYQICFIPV

bovine eNOS = bovine eNOS (Bos taurus (Bovine), UniProt P29473); assay: Hemoglobin capture assay, Ki (Example 159); assay type: biochemical
human nNOS [7] = biological target: T2, human nNOS; assay: Hemoglobin capture assay, Ki (Example 159); assay type: biochemical
human eNOS = human eNOS (Homo sapiens (Human), UniProt P29474); assay: Hemoglobin capture assay, Ki (Example 159); assay type: biochemical
S. aureus UAMS1182 = assay: Effect of H2O2 and NOS inhibitors on S. aureus; assay type: cell-based, Staphylococcus aureus; conditions: for H2O2-mediated killing of S. aureus on co-treatment: 200 μM inhibitor + 5 mM H2O2; for S. aureus survival, inhibitor alone: 200 μM, WT and Δnos strains
bsNOS = bsNOS (Bacillus subtilis (strain 168), UniProt O34453); assay: Imidazole displacement, spectral binding constant KS; conditions: 50 μM H4B
Chain of bsNOS (O34453 whole entry): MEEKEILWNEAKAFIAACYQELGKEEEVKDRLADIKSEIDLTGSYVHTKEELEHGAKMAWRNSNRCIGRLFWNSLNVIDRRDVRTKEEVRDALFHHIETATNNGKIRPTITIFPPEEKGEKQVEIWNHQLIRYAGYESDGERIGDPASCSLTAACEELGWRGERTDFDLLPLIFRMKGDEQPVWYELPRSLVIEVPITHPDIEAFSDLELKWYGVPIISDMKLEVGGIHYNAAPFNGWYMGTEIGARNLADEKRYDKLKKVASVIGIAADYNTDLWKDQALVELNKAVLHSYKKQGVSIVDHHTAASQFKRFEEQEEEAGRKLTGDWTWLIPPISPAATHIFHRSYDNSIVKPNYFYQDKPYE

Row | Compound | e/n (rat nNOS [1]) | i/n (rat nNOS [1]) | Ki (human nNOS [2]) | other results
1 | Cc1cc(N)nc(CCc2cc(F)cc(NCc3cccnc3)c2)c1 [Compound 23g, 6-(3-Fluoro-5-((pyridin-3-ylmethyl)amino)phenethyl)-4-methylpyridin-2-amine] | 10.0 | 10.7 | 255 nM | –
2 | Cc1cc(N)nc(CCc2cc(F)cc(NCc3cccc(Cl)c3)c2)c1 [Compound 23f, 6-(3-((3-Chlorobenzyl)amino)-5-fluorophenethyl)-4-methylpyridin-2-amine] | 262.0 | 354.1 | 2070 nM | –
3 | CNCCN(c1cc(F)cc(CCc2cc(C)cc(N)n2)c1)C1CC1 [Compound 23e, N^1-(3-(2-(6-amino-4-methylpyridin-2-yl)ethyl)-5-fluorophenyl)-N^1-cyclopropyl-N^2-methylethane-1,2-diamine] | 140.9 | 148.7 | 238 nM | –
4 | CCN(CCNC)c1cc(F)cc(CCc2cc(C)cc(N)n2)c1 [Compound 23d, N^1-(3-(2-(6-Amino-4-methylpyridin-2-yl)ethyl)-5-fluorophenyl)-N^1-ethyl-N^2-methylethane-1,2-diamine] | 93.2 | 109.6 | 139 nM | –
5 | Cc1cc(N)nc(CCc2cc(F)cc(N(C)CCNC3CC3)c2)c1 [Compound 23c, N^1-(3-(2-(6-Amino-4-methylpyridin-2-yl)ethyl)-5-fluorophenyl)-N^2-cyclopropyl-N^1-methylethane-1,2-diamine] | 124.3 | 217.8 | 243 nM | –
6 | CCNCCN(C)c1cc(F)cc(CCc2cc(C)cc(N)n2)c1 [Compound 23b, N^1-(3-(2-(6-Amino-4-methylpyridin-2-yl)ethyl)-5-fluorophenyl)-N^2-ethyl-N^1-methylethane-1,2-diamine] | 558.4 | 199.4 | 194 nM | –
7 | Cc1cc(N)nc(CCc2cc(C#N)cc(N(C)CCNC(C)C)c2)c1 [Compound 21b] | 320.1 | 361.5 | 357 nM | –
8 | COCCCC/C(=N\OCCN)c1ccc(C(F)(F)F)cc1 [Fluvoxamine, reference compound] | – | – | – | % inhibition CYP1A2 (CYP1A2): 95%
9 | Cc1cc(N)nc(CCc2cc(F)cc(N3CCNCC3)c2)c1 [Compound 23h, 6-(3-Fluoro-5-(piperazin-1-yl)phenethyl)-4-methylpyridin-2-amine] | 82.8 | 60.2 | 161 nM | –
10 | Cc1cc(N)nc(CCc2cc(C#N)cc(N(C)CCNC3CC3)c2)c1 [Compound 21c] | 274.0 | 246.6 | 378 nM | –
11 | N=C(NCCC[C@H](N)C(=O)O)N[N+](=O)[O-] [L-NNA, N^ω-nitro-L-arginine] | – | – | – | % survival of wt B. subtilis with ACR (B. subtilis; NOS inhibitor + ACR, 30 min): bacterial % survival decreased in the presence of ACR; % survival of wt B. subtilis with H2O2 (B. subtilis; NOS inhibitor + H2O2, 30 min): trivial effects on bacterial survival; % nitrite (bBiDomain): 40.9±5.3%
12 | CNCCN(C)c1cc(C#N)cc(CCc2cc(C)cc(N)n2)c1 [Compound 19c, 3-(2-(6-Amino-4-methylpyridin-2-yl)ethyl)-5-(methyl(2-(methylamino)ethyl)amino)benzonitrile] | – | – | – | T1/2 ([3]; brain): 24.80 h; T1/2 ([3]; plasma): 1.1 h; AUCinf ([3]; p.o. 10 mg/kg, plasma): 182.46 ng·h/mL
13 | Cc1cc(N)nc(CCc2cc(C#N)cc(N(C)CCc3cccc(F)c3)c2)c1 [Compound 21d] | – | 33.7 | – | –
14 | CNCCN(C)c1cccc(CCc2cc(C)cc(N)n2)c1 [Compound 10a, N^1-(3-(2-(6-Amino-4-methylpyridin-2-yl)ethyl)phenyl)-N^1,N^2-dimethylethane-1,2-diamine] | 156 | 41 | – | –
15 | Cc1ccnc(CCc2cccc([C@H](N)Cc3cc(C)cc(N)n3)c2)c1 [Compound 5R, (R)-6-(2-Amino-2-(3-(2-(4-methylpyridin-2-yl)ethyl)phenyl)ethyl)-4-methylpyridin-2-amine] | – | – | – | e/n (rat nNOS [4]): 240; i/n (rat nNOS [4]): >22
16 | Cc1cc(N)nc(CCc2cccc(N(C)CCCN)c2)c1 [Compound 10d, N^1-(3-(2-(6-Amino-4-methylpyridin-2-yl)ethyl)phenyl)-N-methylpropane-1,3-diamine] | 25 | 11 | – | –
17 | COCCCNc1cncc(CCc2cc(C)cc(N)n2)c1 [Compound 14e, 6-(2-(5-(3-Methoxypropylamino)pyridin-3-yl)ethyl)-4-methylpyridin-2-amine] | – | – | – | Ki (rat nNOS [5]): 558 nM; Selectivity n/i (rat nNOS [5]): 13

Row | Compound | e/n (rat nNOS [1]) | i/n (rat nNOS [1]) | Ki (human nNOS [2]) | other results
18 | Cc1ccnc(CCc2cccc([C@@H](N)Cc3cc(C)cc(N)n3)c2)c1 [Compound 5S, (S)-6-(2-Amino-2-(3-(2-(4-methylpyridin-2-yl)ethyl)phenyl)ethyl)-4-methylpyridin-2-amine] | – | – | – | e/n (rat nNOS [4]): 363; i/n (rat nNOS [4]): >110
19 | Cc1cc(N)nc(CCc2cccc(NCCN(C)C)c2)c1 [Compound 10b, N^1-(3-(2-(6-Amino-4-methylpyridin-2-yl)ethyl)phenyl)-N^2,N^2-dimethylethane-1,2-diamine] | 125 | 29 | – | –
20 | CC(=O)CC(c1ccccc1)c1c(O)c2ccccc2oc1=O (stereo not drawn) [Warfarin, reference compound] | – | – | – | % compound remaining at 4 h [6]: 94%; recovery at 4 h, 5 μM (in vitro): 100%
21 | Cc1cc(N)nc(CCc2cccc(N(C)CCN)c2)c1 [Compound 10c, N^1-(3-(2-(6-Amino-4-methylpyridin-2-yl)ethyl)phenyl)-N^1-methylethane-1,2-diamine] | 172 | 47 | – | –
22 | Cc1cc(N)nc(CCc2cc(F)cc(NCCN(C)C)c2)c1 [Compound 23a, N^1-(3-(2-(6-Amino-4-methylpyridin-2-yl)ethyl)-5-fluorophenyl)-N^2,N^2-dimethylethane-1,2-diamine] | 136.9 | 47.3 | 758 nM | –
23 | acriflavine | – | – | – | bacterial growth, % of control (B. subtilis; single agent, 500 μM NOS inhibitor or 800 μM ACR): 23%
24 | CNCCN(C)c1cc(CCc2cc(C)cc(N)n2)cc(C(F)(F)F)c1 [Compound 19a, N^1-(3-(2-(6-Amino-4-methylpyridin-2-yl)ethyl)-5-(trifluoromethyl)phenyl)-N^1,N^2-dimethylethane-1,2-diamine] | 238 | 122 | – | –
25 | CCNCCN(C)c1cc(C#N)cc(CCc2cc(C)cc(N)n2)c1 [Compound 21a] | 583.7 | 178.0 | 225 nM | –
26 | O=c1c(O)c(-c2ccc(O)c(O)c2)oc2cc(O)cc(O)c12 [Quercetin] | – | – | – | % inhibition CYP2C8 (CYP2C8): 95%
27 | Cc1cc(N)nc(CCc2cncc(CCCN(C)C)c2)c1 [Compound 14k, 6-(2-(5-(3-(Dimethylamino)propyl)pyridin-3-yl)ethyl)-4-methylpyridin-2-amine] | – | – | – | Ki (bovine eNOS): 16600 nM; Ki (human nNOS [7]): 37 nM; Ki (human eNOS): 39500 nM
28 | Cc1cc(N)nc(-c2ccc(CNCCc3cccc(F)c3)cc2)c1 [Compound 27, 6-(4-(((3-Fluorophenethyl)amino)methyl)phenyl)-4-methylpyridin-2-amine] | – | – | – | H2O2-mediated killing of S. aureus on co-treatment (S. aureus UAMS1182): significantly increases the H2O2-mediated killing; S. aureus survival, inhibitor alone (S. aureus UAMS1182): reduced bacterial survival over time; Ki (bBiDomain): 502 nM; % nitrite (bBiDomain): 13.2%
29 | Cc1cc(N)nc(CCc2cc(F)cc(NC3CCNCC3)c2)c1 [Compound 23i, 6-(3-Fluoro-5-(piperidin-4-ylamino)phenethyl)-4-methylpyridin-2-amine] | 40.2 | 110.9 | 384 nM | –
30 | Nc1ccc2ccc(CCNCCCc3cccc(F)c3)cc2n1 [Compound 19, reference compound] | – | – | – | H2O2-mediated killing of S. aureus on co-treatment (S. aureus UAMS1182): significantly increases the H2O2-mediated killing; S. aureus survival, inhibitor alone (S. aureus UAMS1182): reduced bacterial survival over time; Ki (bBiDomain): 69.7 nM; % nitrite (bBiDomain): 6.1%
31 | CNC(=C[N+](=O)[O-])NCCSCc1ccc(CN(C)C)o1 [Ranitidine] | – | – | – | apparent permeability (Papp) mean A → B (Caco-2 cells; 10 μM, 2 h): 0.45 10^−6 cm s^−1; apparent permeability (Papp) mean B → A (Caco-2 cells; 10 μM, 2 h): 1.2 10^−6 cm s^−1; efflux ratio (Caco-2 cells; Papp (B→A)/Papp (A→B)): 2.7
32 | Cc1cc(N)nc(CCc2cncc(N3CCOCC3)c2)c1 [Compound 14c, 4-Methyl-6-(2-(5-morpholinopyridin-3-yl)ethyl)pyridin-2-amine] | – | – | – | Ki (rat nNOS [5]): 547 nM; Selectivity n/i (rat nNOS [5]): 21; Ki (human nNOS [7]): 862 nM; Selectivity n/e (human) (human nNOS [7]; human nNOS vs human eNOS): 49; Ki (human eNOS): 42600 nM
33 | NC(=NCCC[C@H](N)C(=O)O)NO [NOHA, N-omega-hydroxy-L-arginine] | – | – | – | fold difference in binding (KS) in presence vs absence of H4B (bsNOS): 1.2 fold
